Test results published in publication PMC2727864 (Molecular cancer therapeutics, 2008).
Several values for one entry are separate records, joined by “and”; a condition that tells them apart may be missing. Equal values may be shown once.

Experiments:
phospho-Ser473 AKT [1] = experiment: Inhibition of phospho-Ser473 AKT by Western analysis in NIH3T3 cells; type: cell-based; settings: Mus musculus, NIH3T3, read-out: AKT inhibition (IC50) NIH3T3
phospho-Ser473 AKT [2] = experiment: Inhibition of phospho-Ser473 AKT by Western analysis in HT-29 cells; type: cell-based, human
LogP = type: physicochemical
[3] = Metabolic stability, incubation with HT-29 cells in DMEM at 37°C; type: in vitro ADME; settings: human
Solubility = type: physicochemical
phospho-Ser241 PDK1 = experiment: Phospho-Ser241 PDK1 Western analysis in HT-29 cells; type: cell-based, human; settings: HT-29, 2 hr, EGF stimulated, Western blot
phospho-(pan)-PKC = experiment: Phospho-; type: cell-based, human; settings: HT-29, 2 hr, EGF stimulated, Western blot
[4] = Pharmacokinetic study, plasma concentration in mice; type: in vivo, mouse
Toxicity studies in mice = type: in vivo, mouse
[5] = system: HT-29 colon cancer xenografts; experiment: Anti-tumor activity, HT-29 colon cancer xenografts in scid mice; type: in vivo, mouse; settings: orally daily for 5 days at 250 mg/kg
tumor phospho-Ser473 AKT = experiment: Pharmacodynamic study, tumor phospho-Ser473 AKT in HT-29 xenografts; type: in vivo, mouse
[6] = five daily doses at 250 mg/kg ip
[7] = 24 hr after a single dose 250 mg/kg

## CC1=NN(C(=O)c2ccc(Cl)cc2)C(=O)C1N=Nc1ccc(S(=O)(=O)Nc2ncccn2)cc1 (centres unmarked) [Compound 1, 4-[1-(4-Chlorobenzoyl)-3-methyl-5-oxo-4,5-dihydro-1H-pyrazol-4-ylazo]-N-pyrimidin-2-yl-benzenesulfonamide]
phospho-Ser473 AKT [1]
  IC50: 4 µM
phospho-Ser473 AKT [2]; HT-29, 2 hr, EGF stimulated, Western blot
  AKT phosphorylation, concentration response: decreased in a concentration-dependent manner
phospho-Ser473 AKT [2]; Homo sapiens, HT-29, read-out: AKT inhibition (IC50) HT-29
  IC50: 13 µM
LogP
  logP: 2.1
[3]
  half-life: 1.03 h
Solubility
  solubility: very insoluble and 17.9 µM
phospho-Ser241 PDK1
  phosphorylation of PDK: decreased
phospho-(pan)-PKC
  phosphorylation of PKC: decreased
[4]; single dose 250 mg/kg ip
  peak plasma concentration, ip: 1.4 µM
[4]; single dose 250 mg/kg oral
  peak plasma concentration, oral: 0.6 µM
Toxicity studies in mice; [6]
  body weight, blood lymphocyte, red blood cell and platelet count, AST, ALT: no change
  neutropenia: moderate neutropenia
Toxicity studies in mice; single dose up to 250 mg/kg, ip, mice
  toxicity, single dose: no toxicity
[5]
  anti-tumor activity: no activity
Tumor phospho-Ser473 AKT; 4 hr after a single dose 250 mg/kg
  inhibition of tumor phospho-Ser473 AKT at 4 hr: small inhibition
Tumor phospho-Ser473 AKT; [7]
  inhibition of tumor phospho-Ser473 AKT at 24 hr: no inhibition
  total AKT in tumor compared to actin loading control: significant decrease
